From PMC5564600 (Oncotarget, 2017)

Legend:
Assay in all cases: biochemical
Assay type in all cases: binding
panel of 442 kinases [1] = target: T1, panel of 442 kinases (Homo sapiens, UniProt Q86Z02); details: kinase HIPK1; for remaining activity at 1 µM: read-out: % of control at 1 µM
T1 construct: purchased Ambit Biosciences (scanMAXX KINOMEscan)

panel of 442 kinases [2] = target: T2, panel of 442 kinases (Homo sapiens, UniProt P51955); details: kinase NEK2; for remaining activity at 1 µM: read-out: % of control at 1 µM
T2 construct: purchased Ambit Biosciences (scanMAXX KINOMEscan)
T2 sequence (P51955 1-445): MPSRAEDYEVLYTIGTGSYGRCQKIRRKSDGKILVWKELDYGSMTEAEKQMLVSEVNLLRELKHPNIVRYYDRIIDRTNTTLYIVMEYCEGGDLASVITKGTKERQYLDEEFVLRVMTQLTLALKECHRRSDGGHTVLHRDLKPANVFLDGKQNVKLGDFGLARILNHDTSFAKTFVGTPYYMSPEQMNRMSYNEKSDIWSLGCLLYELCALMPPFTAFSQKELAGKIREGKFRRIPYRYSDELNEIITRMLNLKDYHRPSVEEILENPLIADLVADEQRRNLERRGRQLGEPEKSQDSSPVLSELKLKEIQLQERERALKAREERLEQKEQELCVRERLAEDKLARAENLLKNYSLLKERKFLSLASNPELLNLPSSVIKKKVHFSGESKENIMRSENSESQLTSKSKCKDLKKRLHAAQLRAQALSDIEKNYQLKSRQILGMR

panel of 442 kinases [3] = target: T3, panel of 442 kinases (Homo sapiens, UniProt P15056); details: BRAF; for remaining activity at 1 µM: read-out: % of control at 1 µM
T3 construct: purchased Ambit Biosciences (scanMAXX KINOMEscan)
T3 sequence (P15056 whole entry): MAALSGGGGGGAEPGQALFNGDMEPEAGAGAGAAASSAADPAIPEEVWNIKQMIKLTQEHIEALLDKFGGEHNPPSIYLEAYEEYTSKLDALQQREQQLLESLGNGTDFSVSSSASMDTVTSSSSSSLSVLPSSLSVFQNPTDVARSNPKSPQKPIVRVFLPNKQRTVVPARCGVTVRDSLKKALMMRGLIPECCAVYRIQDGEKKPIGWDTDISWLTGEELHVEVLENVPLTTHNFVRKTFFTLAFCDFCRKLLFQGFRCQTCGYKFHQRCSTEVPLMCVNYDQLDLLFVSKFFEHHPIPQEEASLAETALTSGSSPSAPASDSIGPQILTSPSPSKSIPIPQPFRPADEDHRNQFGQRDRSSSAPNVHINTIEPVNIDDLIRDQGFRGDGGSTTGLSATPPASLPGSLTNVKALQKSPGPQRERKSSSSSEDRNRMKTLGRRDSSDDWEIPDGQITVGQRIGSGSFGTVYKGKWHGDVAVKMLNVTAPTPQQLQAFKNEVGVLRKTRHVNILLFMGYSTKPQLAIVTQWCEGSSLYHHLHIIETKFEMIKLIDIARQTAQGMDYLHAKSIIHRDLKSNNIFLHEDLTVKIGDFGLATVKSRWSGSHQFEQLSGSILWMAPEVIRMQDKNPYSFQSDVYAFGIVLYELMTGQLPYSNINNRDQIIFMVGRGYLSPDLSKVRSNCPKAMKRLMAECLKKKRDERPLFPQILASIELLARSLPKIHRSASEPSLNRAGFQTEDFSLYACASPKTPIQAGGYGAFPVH

panel of 442 kinases [4] = target: T4, panel of 442 kinases (Homo sapiens, UniProt Q8N752); details: CSNK1A1L; for remaining activity at 1 µM: read-out: % of control at 1 µM
T4 construct: purchased Ambit Biosciences (scanMAXX KINOMEscan)
T4 sequence (Q8N752 1-337): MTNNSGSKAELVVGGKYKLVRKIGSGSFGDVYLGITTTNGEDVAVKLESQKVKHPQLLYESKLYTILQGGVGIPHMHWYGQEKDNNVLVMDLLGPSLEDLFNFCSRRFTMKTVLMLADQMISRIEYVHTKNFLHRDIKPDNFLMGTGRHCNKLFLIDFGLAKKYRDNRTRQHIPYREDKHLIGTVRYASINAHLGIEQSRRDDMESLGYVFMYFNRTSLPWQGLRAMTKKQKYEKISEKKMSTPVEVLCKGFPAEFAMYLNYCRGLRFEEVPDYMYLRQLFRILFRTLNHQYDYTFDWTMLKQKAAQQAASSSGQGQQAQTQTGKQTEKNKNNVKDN

panel of 442 kinases [5] = target: T5, panel of 442 kinases (Homo sapiens, UniProt Q9UHD2); details: kinase TBK1; for remaining activity at 1 µM: read-out: TBK1 (% of control at 1 µM)
T5 construct: purchased Ambit Biosciences (scanMAXX KINOMEscan)
T5 sequence (Q9UHD2 1-729): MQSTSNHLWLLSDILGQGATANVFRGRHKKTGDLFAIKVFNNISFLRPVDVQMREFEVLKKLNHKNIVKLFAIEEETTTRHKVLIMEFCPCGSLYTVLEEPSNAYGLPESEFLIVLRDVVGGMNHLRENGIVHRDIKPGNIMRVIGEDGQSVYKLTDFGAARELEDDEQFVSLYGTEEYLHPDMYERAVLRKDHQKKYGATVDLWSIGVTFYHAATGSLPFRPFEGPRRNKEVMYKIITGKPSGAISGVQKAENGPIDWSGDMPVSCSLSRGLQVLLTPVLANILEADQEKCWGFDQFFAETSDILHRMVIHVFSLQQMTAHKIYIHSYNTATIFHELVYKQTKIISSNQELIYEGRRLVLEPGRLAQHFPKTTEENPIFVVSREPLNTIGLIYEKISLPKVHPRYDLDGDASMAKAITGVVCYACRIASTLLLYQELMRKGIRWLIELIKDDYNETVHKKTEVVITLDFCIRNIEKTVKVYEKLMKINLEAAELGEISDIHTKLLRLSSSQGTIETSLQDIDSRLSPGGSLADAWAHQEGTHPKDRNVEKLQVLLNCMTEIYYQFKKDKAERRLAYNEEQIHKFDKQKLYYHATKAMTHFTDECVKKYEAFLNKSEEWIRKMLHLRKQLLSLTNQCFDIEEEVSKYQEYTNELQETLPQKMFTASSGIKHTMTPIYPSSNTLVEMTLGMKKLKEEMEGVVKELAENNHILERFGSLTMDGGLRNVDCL

panel of 442 kinases [6] = target: T6, panel of 442 kinases (Homo sapiens, UniProt O00506); details: kinase YSK1; for remaining activity at 1 µM: read-out: YSK1 (% of control at 1 µM)
T6 construct: purchased Ambit Biosciences (scanMAXX KINOMEscan)
T6 sequence (O00506 whole entry): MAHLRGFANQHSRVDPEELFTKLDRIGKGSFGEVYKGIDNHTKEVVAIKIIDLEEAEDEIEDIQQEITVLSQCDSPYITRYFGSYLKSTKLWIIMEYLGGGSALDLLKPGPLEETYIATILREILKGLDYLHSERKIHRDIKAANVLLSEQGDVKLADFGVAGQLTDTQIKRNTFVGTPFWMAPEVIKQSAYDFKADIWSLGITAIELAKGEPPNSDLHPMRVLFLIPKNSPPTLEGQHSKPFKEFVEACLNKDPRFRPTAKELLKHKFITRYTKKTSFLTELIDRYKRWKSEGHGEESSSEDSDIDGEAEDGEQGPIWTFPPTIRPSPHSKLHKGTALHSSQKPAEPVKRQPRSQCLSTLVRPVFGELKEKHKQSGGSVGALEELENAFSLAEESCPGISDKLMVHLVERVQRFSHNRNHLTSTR

panel of 442 kinases [7] = target: T7, panel of 442 kinases (Homo sapiens, UniProt P00519, M351T); details: ABL1(M351T)-phosphorylated; for remaining activity at 1 µM: read-out: % of control at 1 µM
T7 construct: purchased Ambit Biosciences (scanMAXX KINOMEscan)

[8] = 10 µM, read-out: % of control at 10 µM

T1 sequence (Q86Z02 whole entry): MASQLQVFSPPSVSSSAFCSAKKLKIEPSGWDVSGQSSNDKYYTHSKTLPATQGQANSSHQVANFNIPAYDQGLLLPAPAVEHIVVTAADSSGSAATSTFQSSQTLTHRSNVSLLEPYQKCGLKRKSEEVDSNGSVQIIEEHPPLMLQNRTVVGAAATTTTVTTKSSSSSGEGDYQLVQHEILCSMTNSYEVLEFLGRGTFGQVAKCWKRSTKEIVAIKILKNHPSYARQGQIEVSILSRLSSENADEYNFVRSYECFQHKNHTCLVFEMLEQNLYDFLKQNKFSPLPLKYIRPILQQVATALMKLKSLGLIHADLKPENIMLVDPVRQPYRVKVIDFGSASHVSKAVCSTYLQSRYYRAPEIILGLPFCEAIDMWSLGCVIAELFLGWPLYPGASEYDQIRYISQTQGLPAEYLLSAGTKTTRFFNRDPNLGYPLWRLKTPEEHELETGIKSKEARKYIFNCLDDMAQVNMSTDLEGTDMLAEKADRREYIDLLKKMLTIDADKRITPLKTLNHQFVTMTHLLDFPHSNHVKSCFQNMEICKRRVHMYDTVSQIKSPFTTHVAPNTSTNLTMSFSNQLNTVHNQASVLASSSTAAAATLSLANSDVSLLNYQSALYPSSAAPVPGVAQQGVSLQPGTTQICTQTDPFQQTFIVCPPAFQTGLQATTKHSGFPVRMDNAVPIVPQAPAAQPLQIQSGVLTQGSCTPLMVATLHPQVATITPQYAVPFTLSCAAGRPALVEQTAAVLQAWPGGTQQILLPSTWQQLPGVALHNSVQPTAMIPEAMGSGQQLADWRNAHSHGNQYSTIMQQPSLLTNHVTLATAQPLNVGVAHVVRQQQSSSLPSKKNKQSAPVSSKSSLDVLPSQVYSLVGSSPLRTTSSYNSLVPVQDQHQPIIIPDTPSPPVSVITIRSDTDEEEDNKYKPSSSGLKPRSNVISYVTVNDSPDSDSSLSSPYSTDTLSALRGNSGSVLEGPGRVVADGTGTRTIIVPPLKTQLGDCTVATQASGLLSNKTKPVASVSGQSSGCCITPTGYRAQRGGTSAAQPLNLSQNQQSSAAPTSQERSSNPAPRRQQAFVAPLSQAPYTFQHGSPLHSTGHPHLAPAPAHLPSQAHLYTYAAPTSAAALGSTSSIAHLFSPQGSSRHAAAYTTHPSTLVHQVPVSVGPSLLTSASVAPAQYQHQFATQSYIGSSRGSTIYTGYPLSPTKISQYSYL

Compound | remaining activity at 1 µM (panel of 442 kinases [1]) [%] | remaining activity at 10 µM (panel of 442 kinases [1]; [8]) [%] | remaining activity at 1 µM (panel of 442 kinases [2]) [%] | remaining activity at 10 µM (panel of 442 kinases [2]; [8]) [%] | remaining activity at 1 µM (panel of 442 kinases [3]) [%] | remaining activity at 10 µM (panel of 442 kinases [3]; [8]) [%] | remaining activity at 1 µM (panel of 442 kinases [4]) [%] | remaining activity at 10 µM (panel of 442 kinases [4]; [8]) [%] | remaining activity at 1 µM (panel of 442 kinases [5]) [%] | remaining activity at 10 µM (panel of 442 kinases [5]; 10 µM, read-out: TBK1 (% of control at 10 µM)) [%] | remaining activity at 1 µM (panel of 442 kinases [6]) [%] | remaining activity at 10 µM (panel of 442 kinases [6]; 10 µM, read-out: YSK1 (% of control at 10 µM)) [%] | remaining activity at 1 µM (panel of 442 kinases [7]) [%] | remaining activity at 10 µM (panel of 442 kinases [7]; [8]) [%]
Nc1cc(C(F)(F)F)c(-c2cc(N3CCOCC3)nc(N3CCOCC3)n2)cn1 [Buparlisib] | 100 | 89 | 84 | 86 | 59 | 40 | 100 | 100 | 99 | 100 | 100 | 100 | 90 | 97
Cn1c(=O)n(-c2ccc(C(C)(C)C#N)cc2)c2c3cc(-c4cnc5ccccc5c4)ccc3ncc21 [Dactolisib, 2-methyl-2-[4-(3-methyl-2-oxo-8-quinolin-3-yl-2,3-dihydroimidazo[4,5-c]quinolin-1-yl)-phenyl] propionitrile] | 72 |  | 88 |  | 88 |  | 100 |  | 93 |  | 100 |  | 89 | 
COc1ncc(-c2ccc3nccc(-c4ccnnc4)c3c2)cc1NS(=O)(=O)c1ccc(F)cc1F [Omipalisib] | 99 |  | 100 |  |  |  | 100 |  | 100 |  | 91 |  | 94 | 
FC(F)c1nc2ccccc2n1-c1nc(N2CCOCC2)nc(N2CCOCC2)n1 [ZSTK474, 2-(difluoromethyl)-1-[4,6-di(4-morpholinyl)-1,3,5-triazin-2-yl]-1H-benzimidazole] | 86 |  | 87 |  | 61 |  | 100 |  | 100 |  | 83 |  | 100 | 
